In patent publication US4416884A, “Piperazinylbenzoheterocyclic compounds” (Otsuka Pharmaceutical Co., Ltd., priority 1978, dated 1983):
Read-outs that look alike come from different tables or passages of the source.

Tests used:
[1] = system: Bacillus subtilis PCI 219; test: antimicrobial activity, serial dilution method on agar plate; format: cell-based
Procedure, shortened: (§1)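 Test compounds were diluted serially into Heart Infusion agar plates. Each organism was adjusted to 1×10^8 cells/ml by optical density at 660 mμ, then also diluted to 1×10^6 cells/ml. Minimum inhibitory concentrations were recorded in mcg/ml.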

[2] = system: Escherichia Coli NIHJ JC-2 (IFO 12734); test: as above; format: cell-based; conditions: Escherichia coli, read-out: Minimum Inhibitory Concentration
Procedure, shortened: as §1

Escherichia Coli NIHJ = test: as above; format: cell-based
Procedure, shortened: as §1

[3] = system: Klebsiella pneumoniae ST-101; test: as above; format: cell-based
Procedure, shortened: as §1

Klebsiella pneumoniae = test: as above; format: cell-based
Procedure, shortened: as §1

[4] = system: Proteus morganii IID Kono; test: as above; format: cell-based; conditions: Morganella morganii
Procedure, shortened: as §1

Proteus rettgeri NIH 96 = test: as above; format: cell-based; conditions: Providencia rettgeri
Procedure, shortened: as §1

[5] = system: Proteus vulgaris IID OX-19; test: as above; format: cell-based; conditions: read-out: Minimum Inhibitory Concentration
Procedure, shortened: as §1

[6] = system: Pseudomonas aeruginosa ATCC 10145; test: as above; format: cell-based
Procedure, shortened: as §1

[7] = system: Salmonella typhi 0-901 (NCTC 8393); test: as above; format: cell-based; conditions: Salmonella enterica
Procedure, shortened: as §1

[8] = system: Serattia marcescens IFO 12648; test: as above; format: cell-based
Procedure, shortened: as §1

Shigella Sonnei EW 33 = test: as above; format: cell-based; conditions: read-out: Minimum Inhibitory Concentration
Procedure, shortened: as §1

[9] = system: Staphylococcus aureus FDA 209 P; test: as above; format: cell-based
Procedure, shortened: as §1

[10] = system: Yersinia enterocolitica 0-3; test: as above; format: cell-based
Procedure, shortened: as §1

[11] = system: Aeromonas hydrophila IFO 12658; test: antimicrobial activity on bacteria which cause infectious diseases in fish; format: cell-based
Description: (§2) The antimicrobial activity of the following test compounds on various test organisms listed below was determined by the serial dilution method on agar plate (Heart Infusion agar produced by Difco Co.) (see CHEMOTHERAPY 22, pp. 1126-1128 (1974)), and the minimum inhibitory concentrations (mcg/ml) obtained are shown in Table 1 below.
(§3) A sample of each test organism was prepared so that the population of the organism was 1×10^8 cells/ml (O.D. 660 mμ=0.07 to 0.16) and 1×10^6 cells/ml (which was obtained by diluting the above 1×10^8 cells/ml preparation).
(§4) In the same manner as above, the antimicrobial activity of the following compounds on various test organisms which cause infectious diseases in fish was determined.

[12] = system: Aeromonas hydrophila IFO 12981; test: as above; format: cell-based
Description: as §2, §3, §4

[13] = system: Aeromonas salmonicida IFO 12659; test: as above; format: cell-based
Description: as §2, §3, §4

[14] = system: Aeromonas salmonicida IFO 12718; test: as above; format: cell-based
Description: as §2, §3, §4

[15] = system: Pseudomonas fluorescens IFO 12180; test: as above; format: cell-based; conditions: IFO12180, read-out: Minimum Inhibitory Concentration
Description: as §2, §3, §4

[16] = system: Pseudomonas fluorescens IFO 12568; test: as above; format: cell-based
Description: as §2, §3, §4

[17] = system: Vibrio anguillarum IFO 12710; test: as above; format: cell-based
Description: as §2, §3, §4

[18] = system: Vibrio anguillarum IFO 13266; test: as above; format: cell-based
Description: as §2, §3, §4

[19] = acute toxicity by intravenous administration in mice; conditions: mouse, in vivo, i.v., mice not fed for 12 hours
Description: The acute toxicity of the compounds of this invention having the formula (I) was determined by intravenous administration (i.v.) in mice which had not been fed for 12 hours prior to the test. LD50 values (50% lethal dose) obtained are set forth below:
In the same manner as above, LD50 values were determined for all the other test compounds and the LD50 values obtained were at least 500 mg/kg.

[20] = system: Pseudomonas aeruginosa E-2; test: antimicrobial activity, serial dilution method on agar plate; format: cell-based; conditions: read-out: Minimum Inhibitory Concentration
Procedure, shortened: as §1

[21] = system: Pseudomonas aeruginosa NCTC 10490; test: as above; format: cell-based; conditions: read-out: Minimum Inhibitory Concentration
Procedure, shortened: as §1

[22] = system: Streptococcus pyogenes IID S-23; test: as above; format: cell-based; conditions: read-out: Minimum Inhibitory Concentration
Procedure, shortened: as §1

[23] = read-out: Minimum Inhibitory Concentration, inoculum 1 × 10^6 cells/ml
[24] = read-out: Minimum Inhibitory Concentration, inoculum 1 × 10^8 cells/ml
[25] = inoculum 1 × 10^6 cells/ml, read-out: Minimum Inhibitory Concentration
[26] = inoculum 1 × 10^8 cells/ml, read-out: Minimum Inhibitory Concentration

O=C(O)c1cn2c3c(c(N4CCNCC4)ccc3c1=O)CCC2 [B]
1.6 µg/mL: MIC (Escherichia Coli NIHJ; [24]) | MIC ([3]; ST101, read-out: Minimum Inhibitory Concentration, inoculum 1 × 10^6 cells/ml) | MIC ([3]; ST101, read-out: Minimum Inhibitory Concentration, inoculum 1 × 10^8 cells/ml) | MIC (Klebsiella pneumoniae; [23]) | MIC (Proteus rettgeri NIH 96; NIH96, read-out: Minimum Inhibitory Concentration, inoculum 1 × 10^6 cells/ml) | MIC (Proteus rettgeri NIH 96; NIH96, read-out: Minimum Inhibitory Concentration, inoculum 1 × 10^8 cells/ml) | MIC ([5]; IIDOX19, inoculum 1 × 10^6 cells/ml) | MIC (Shigella Sonnei EW 33; inoculum 1 × 10^6 cells/ml) | MIC (Shigella Sonnei EW 33; inoculum 1 × 10^8 cells/ml) | MIC ([11]; IFO12658, inoculum 10^8, read-out: Minimum Inhibitory Concentration) | MIC ([13]; IFO12659, inoculum 10^8, read-out: Minimum Inhibitory Concentration)
1100 mg/kg: LD50 [19]
2.5 µg/mL: MIC ([9]; FDA209, read-out: Minimum Inhibitory Concentration, inoculum 1 × 10^8 cells/ml)
3.1 µg/mL: MIC [2] | MIC [8, 23] | MIC ([10]; Yersinia enterocolitica, 03, read-out: Minimum Inhibitory Concentration, inoculum 1 × 10^6 cells/ml) | MIC ([17]; IFO12710, read-out: Minimum Inhibitory Concentration, inoculum 10^6)
0.4 µg/mL: MIC ([12]; IFO12981, inoculum 10^6, read-out: Minimum Inhibitory Concentration) | MIC ([14]; IFO12718, inoculum 10^6, read-out: Minimum Inhibitory Concentration) | MIC ([18]; IFO13266, read-out: Minimum Inhibitory Concentration, inoculum 10^6)
0.8 µg/mL: MIC (Escherichia Coli NIHJ; [23]) | MIC [7, 25] | MIC [7, 26] | MIC ([11]; IFO12658, inoculum 10^6, read-out: Minimum Inhibitory Concentration) | MIC ([12]; IFO12981, inoculum 10^8, read-out: Minimum Inhibitory Concentration) | MIC ([13]; IFO12659, inoculum 10^6, read-out: Minimum Inhibitory Concentration) | MIC ([14]; IFO12718, inoculum 10^8, read-out: Minimum Inhibitory Concentration) | MIC ([18]; IFO13266, read-out: Minimum Inhibitory Concentration, inoculum 10^8)
25 µg/mL: MIC ([16]; IFO12568, read-out: Minimum Inhibitory Concentration, inoculum 10^6)
6.3 µg/mL: MIC (Klebsiella pneumoniae; [24]) | MIC [4, 23] | MIC ([6]; ATCC10145, read-out: Minimum Inhibitory Concentration, inoculum 1 × 10^6 cells/ml) | MIC [8, 24] | MIC [15]
50 µg/mL: MIC ([16]; IFO12568, read-out: Minimum Inhibitory Concentration, inoculum 10^8)
12.5 µg/mL: MIC ([1]; PCI219, read-out: Minimum Inhibitory Concentration, inoculum 1 × 10^6 cells/ml) | MIC ([1]; PCI219, read-out: Minimum Inhibitory Concentration, inoculum 1 × 10^8 cells/ml) | MIC [4, 24] | MIC ([5]; IIDOX19, inoculum 1 × 10^8 cells/ml) | MIC ([6]; ATCC10145, read-out: Minimum Inhibitory Concentration, inoculum 1 × 10^8 cells/ml) | MIC ([9]; FDA209, read-out: Minimum Inhibitory Concentration, inoculum 1 × 10^6 cells/ml) | MIC ([10]; Yersinia enterocolitica, 03, read-out: Minimum Inhibitory Concentration, inoculum 1 × 10^8 cells/ml) | MIC ([17]; IFO12710, read-out: Minimum Inhibitory Concentration, inoculum 10^8)

CC1Cc2c(Cl)ccc3c(=O)c(C(=O)O)cn1c23 (centres unmarked) [G]
0.4 µg/mL: MIC (Escherichia Coli NIHJ; [25]) | MIC (Proteus rettgeri NIH 96; NIH96, inoculum 1 × 10^8 cells/ml, read-out: Minimum Inhibitory Concentration)
25 µg/mL: MIC ([6]; ATCC10145, inoculum 1 × 10^6 cells/ml, read-out: Minimum Inhibitory Concentration) | MIC ([21]; NCTC10490, inoculum 1 × 10^8 cells/ml)
12.5 µg/mL: MIC ([21]; NCTC10490, inoculum 1 × 10^6 cells/ml)
1.6 µg/mL: MIC (Klebsiella pneumoniae; [25]) | MIC [8, 25] | MIC (Shigella Sonnei EW 33; inoculum 1 × 10^6 cells/ml) | MIC (Shigella Sonnei EW 33; inoculum 1 × 10^8 cells/ml)
100 µg/mL: MIC ([20]; E2, inoculum 1 × 10^8 cells/ml)
0.2 µg/mL: MIC (Proteus rettgeri NIH 96; NIH96, inoculum 1 × 10^6 cells/ml, read-out: Minimum Inhibitory Concentration)
> 100 µg/mL: MIC ([22]; IIDS23, inoculum 1 × 10^6 cells/ml) | MIC ([22]; IIDS23, inoculum 1 × 10^8 cells/ml)
3.1 µg/mL: MIC (Klebsiella pneumoniae; [26]) | MIC [8, 26] | MIC ([9]; FDA209, inoculum 1 × 10^6 cells/ml, read-out: Minimum Inhibitory Concentration) | MIC ([9]; FDA209, inoculum 1 × 10^8 cells/ml, read-out: Minimum Inhibitory Concentration)
0.8 µg/mL: MIC (Escherichia Coli NIHJ; [26]) | MIC [7, 23] | MIC [7, 24]
50 µg/mL: MIC ([6]; ATCC10145, inoculum 1 × 10^8 cells/ml, read-out: Minimum Inhibitory Concentration) | MIC ([20]; E2, inoculum 1 × 10^6 cells/ml)
